For two substances, EC50 results are on record in PMC4418468 (BioTechniques, 2009).

This assay addresses CXCR7 (Homo sapiens, UniProt P25106). Description: competition of CXCL12-Gaussia luciferase binding to intact cells at […] °C. It is filed as cell-based.

Sequence of CXCR7 (P25106 whole entry): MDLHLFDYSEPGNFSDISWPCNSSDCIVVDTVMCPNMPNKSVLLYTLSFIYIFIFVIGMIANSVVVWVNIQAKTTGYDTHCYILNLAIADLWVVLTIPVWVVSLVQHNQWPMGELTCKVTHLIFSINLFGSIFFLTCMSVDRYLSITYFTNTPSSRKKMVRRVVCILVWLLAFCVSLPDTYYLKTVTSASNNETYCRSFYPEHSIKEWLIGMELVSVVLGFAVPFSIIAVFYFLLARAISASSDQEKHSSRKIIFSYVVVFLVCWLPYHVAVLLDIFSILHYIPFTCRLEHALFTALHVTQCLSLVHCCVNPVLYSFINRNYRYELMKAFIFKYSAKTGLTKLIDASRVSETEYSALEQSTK

By EC50 is commonly meant the concentration that produces a half-maximal response. A low value points to a more potent agent. Turning to CCX733, the EC50 was around 18 nM.

Regarding CCX754, the EC50 was around 250 nM.
